Results from patent publication US6538037B2, “Methods for preparation and use of 1α,24(S)-dihydroxyvitamin D2” (Bone Care International, Inc., priority 1991, dated 2003).
Read-outs that look alike come from different tables or passages of the source.

Experiments:
[1] = target: T1, vitamin D serum binding protein (DBP) (Rattus norvegicus, UniProt P04276); assay: Affinity for vitamin D serum binding protein using vitamin D deficient rat serum
T1 construct: assessed using vitamin D deficient rat serum; from tissue; host or cells: vitamin D deficient rat serum
T1 sequence (P04276 17-476): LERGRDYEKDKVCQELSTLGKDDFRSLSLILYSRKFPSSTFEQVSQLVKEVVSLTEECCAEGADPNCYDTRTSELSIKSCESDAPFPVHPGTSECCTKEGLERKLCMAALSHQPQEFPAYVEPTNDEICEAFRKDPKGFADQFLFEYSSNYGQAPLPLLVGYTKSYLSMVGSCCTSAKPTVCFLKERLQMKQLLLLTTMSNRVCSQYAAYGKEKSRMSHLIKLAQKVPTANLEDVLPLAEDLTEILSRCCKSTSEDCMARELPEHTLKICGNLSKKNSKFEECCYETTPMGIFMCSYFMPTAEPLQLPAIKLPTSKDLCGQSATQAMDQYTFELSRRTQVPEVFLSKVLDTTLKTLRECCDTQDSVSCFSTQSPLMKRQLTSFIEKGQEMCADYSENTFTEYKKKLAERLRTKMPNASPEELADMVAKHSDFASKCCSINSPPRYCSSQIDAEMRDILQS
From the text: In addition, the weak binding by the DBP was indicative of more rapid clearance, allowing for low toxicity.

Hep 3B cells = assay: Metabolism of 1α-OH-D2 in Hep 3B cells; type: in vitro ADME, human; conditions: photodiode array spectrophotometry
Description: Substantially pure 1α-(OH)D2 was obtained from Bone Care International, Inc. of Madison, Wis. The 1α-(OH)D2 was cultured for 48 hours with cells derived from a human hepatoma, Hep 3B, in medium devoid of fetal calf serum using known methods in the art.
Lipid extracts of the combined medium and cells were generated by known methods in the art and were subjected to high pressure liquid chromatography (HPLC) on Zorbax-S1L developed with hexane/isopropano/methanol (91:7:2). The putative 1α,24(?)-(OH)2D2 metabolite eluted between the parent 1α-(OH)D2 and standard 1α,25-(OH)2D2 (also obtained from Bone Care International, Inc. of Madison, Wis.). (As used herein, the term “1α,24(?)-(OH)2D2” is meant to indicate that the epimeric form has not been identified.) The 1α,24(?)-(OH)2D2 was further purified by this HPLC system before the metabolite's identification was undertaken using mass spectrometry analysis.
Hep 3B cells were incubated with 1α-OH-D2, as described above, at final concentrations of 1, 10, or 100 nM (Experiment 1), and 1 or 10 μM (Experiment 2) and 1α,24(S)-(OH)2D2 was extracted and purified. The 1α,24(S)-(OH)2D2 and 1α,25-(OH)2D2 metabolites were quantitated by recovered radiolabel (Experiment 1) or by photodiode array spectrophotometry (Experiment 2).

[2] = Preventive treatment of bone mass loss in postmenopausal osteoporotic women; type: in vivo, human; conditions: at or above 1.0 μg/day, 24 to 36 months
Description: A clinical study is conducted with postmenopausal osteoporotic out-patients having ages between 55 and 75 years. The study involves up to 120 patients randomly divided into three treatment groups and continues for 24 to 36 months. Two of the treatment groups receive constant dosages of 1α,24(S)-dihydroxyvitamin D2 (u.i.d.; two different dose levels at or above 1.0 μg/day) and the other group receives a matching placebo. All patients maintain a normal intake of dietary calcium (500 to 800 mg/day) and refrain from using calcium supplements. Efficacy is evaluated by pre-and post-treatment comparisons of the patient groups with regard to (a) total body calcium retention, and (b) radial and spinal bone mineral density as determined by dual-photon absorptiometry (DPA) or dual-energy x-ray absorptiometry (DEXA). Safety is evaluated by comparisons of urinary hydroxyproline excretion, serum and urine calcium levels, creatinine clearance, blood urea nitrogen, and other routine determinations.

[3] = Prophylaxis of postmenopausal bone loss; type: in vivo, human; conditions: at or above 1.0 μg/day, 24 to 36 months
Description: A clinical study is conducted with healthy postmenopausal women having ages between 55 and 60 years. The study involves up to 80 patients randomly divided into two treatment groups, and continues for 24 to 36 months. One treatment group receives a constant dosage of 1α,24(S)-dihydroxyvitamin D2 (u.i.d.; a dose level at or above 1.0 μg/day) and the other receives a matching placebo. The study is conducted as indicated in Example 2 above.

[4] = Hypocalcemia and metabolic bone disease in chronic hemodialysis patients; type: in vivo, human; conditions: greater than 3.0 μg/day
Description: A twelve-month, double-blind, placebo-controlled clinical trial is conducted with thirty men and women with renal disease who are undergoing chronic hemodialysis. All patients enter an 8-week control period during which time they receive a maintenance dose of Vitamin D3 (400 IU/day). After this control period, the patients are randomized into two treatment groups: one group receives a constant dosage of 1α,24(S)-dihydroxyvitamin D2 (u.i.d.; a dosage greater than 3.0 μg/day) and the other group receives a matching placebo. Both treatment groups receive a maintenance dosage of Vitamin D3, maintain a normal intake of dietary calcium, and refrain from using calcium supplements. Efficacy is evaluated by pre- and post-treatment comparisons of the two patient groups with regard to (a) direct measurements of intestinal calcium absorption, (b) total body calcium retention, (c) radial and spinal bone mineral density, or (d) determinations of serum calcium. Safety is evaluated by regular monitoring of serum calcium.

[5] = tested on: vitamin D receptor positive tumor; assay: General treatment of cancers, open-label study; type: in vivo, human; conditions: after 18 months
From the text: Patients with a known vitamin D receptor positive tumor (e.g., adenocarcinoma of the prostate, breast, lung, colon or pancreas, or transitional cell carcinoma of the bladder, or melanoma) participate in an open-label study of 1α,24(S)-(OH)2D2. Patients are placed on a reduced calcium diet prior to treatment, to help minimize intestinal absorption and allow ever higher doses of 1α,24(S)-dihydroxyvitamin D2. This reduced calcium diet may be continued for the duration of treatment, and for one week after the last dose of the 1α,24(S)-dihydroxyvitamin D2. The diet ideally restricts daily calcium intake to 400-500 mg. Patients also discontinue use of any vitamin supplements or vitamin D replacement therapies. Each patient is also asked to drink 4-6 cups of fluid more than usual intake to assure adequate oral hydration.
Each subject is monitored at regular intervals for: (1) hypercalcemia, hyperphosphatemia, hypercalciuria, hyperphosphaturia and other toxicity; (2) evidence of changes in the progression of metastatic disease; and (3) compliance with the prescribed test drug dosage.
The dosing regimen is typically on a daily dose basis of 10 μg or 20 μg per day to about 100 μg/day for 24 months. Alternatively, a non-daily dosing regimen can be used, e.g., 40 μg given every other day, 100 μg given once a week. […]

- binding affinity for the vitamin D serum binding protein (in words) [1]: relatively poor binding affinity
- binding affinity for the vitamin D serum binding protein (in words) ([1]; listed as 1α,24(S)-dihydroxyvitamin D2): more weakly than does 1,25-(OH)2D3
- binding of DBP relative to 25-OH-D3 ([1]; vitamin D deficient rat serum): at least 1000 times weaker
- Rate of Production (Hep 3B cells; Experiment 2, substrate 1α-OH-D2 1 μM): 4.9 pmol per 10^6 cells/day
- Rate of Production (Hep 3B cells; Experiment 2, substrate 1α-OH-D2 10 μM): 59 pmol per 10^6 cells/day
Structure (SMILES): C=C1/C(=C\C=C2/CCC[C@]3(C)[C@@H]([C@H](C)/C=C/[C@@](C)(O)C(C)C)CC[C@@H]23)C[C@@H](O)C[C@@H]1O [1α,24(S)-(OH)2D2, 1α,24(S)-dihydroxyvitamin D2]
- incidence of hypercalcemia or hypercalciuria [2]: insignificant incidence of hypercalcemia or hypercalciuria
- total body calcium, radial and spinal bone densities relative to placebo [2]: significantly higher total body calcium, and radial and spinal bone densities
- losses in total body calcium, radial or spinal bone densities relative to baseline [3]: reduced losses in total body calcium, radial or spinal bone densities
- monitored safety parameters [3]: confirm the safety of long-term 1α,24(S)-dihydroxyvitamin D2 administration
- intestinal calcium absorption ([4]; double-isotope technique): significantly increases intestinal calcium absorption
- incidence of hypercalcemia ([4]; twelve months): insignificant incidence of hypercalcemia
- serum calcium levels ([4]; twelve months): normalized serum calcium levels
- total body calcium and radial and spinal bone densities relative to baseline ([4]; twelve months): stable values for total body calcium, and stable radial and spinal bone densities
- progress of metastatic disease (CAT scans, X-rays, bone scans) ([5]; higher dosage): stable disease and partial or complete remission in many patients
- progress of metastatic disease (CAT scans, X-rays, bone scans) ([5]; lower dosage): partial remission in many patients
